This note sets out measurements from PubChem BioAssay (NCI).

“And” between values parts separate entries of the source, which are not always exact repeats. Equal entries are not always repeated.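 How tested: cells in 96-well plates exposed to compound for 48 hours at five concentrations. The concentration for 50% growth inhibition is given as GI50. At the TGI there is no net growth.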

Some test systems named below: NCI-H23 lung; SNB-75 CNS; NCI-H460 lung; SK-OV-3 ovarian; SK-MEL-2 melanoma; HCT-15 colon; KM12 colon; SNB-19 CNS; SK-MEL-5 melanoma; RPMI-8226 leukemia.
What all share (assay): growth of human tumour cells (NCI), 48 h

Regarding `CCOC(=O)/C=C(/C(=O)OCC)n1cc(Cl)c(=O)n(CC(=O)OCC)c1=O`, the GI50 was 20 µM in the experiment on NCI-H23 lung; 16.6 µM in the experiment on SNB-75 CNS; 35.1 µM in the experiment with NCI-H460 lung; 41.4 µM in the experiment with SK-OV-3 ovarian; 26.2 µM in the experiment with SK-MEL-2 melanoma; 19 µM in the experiment with HCT-15 colon. In addition, the GI50 is 21.2 µM in the experiment on KM12 colon and 32.7 µM in the experiment with SNB-19 CNS. Also, the TGI with NCI-H23 lung was 10.8 µM and 41.5 µM; in the experiment with SNB-75 CNS it was 13 µM and 33.6 µM; with NCI-H460 lung it was 25 µM and > 100 µM; with SK-OV-3 ovarian, over 100 µM; in the experiment with SK-MEL-2 melanoma it was 11.2 µM and 46.3 µM; in the experiment with HCT-15 colon, 10.5 µM and 40.1 µM. Further, the TGI in the experiment with KM12 colon was > 25 µM and 43.8 µM; with SNB-19 CNS, over 100 µM; with SK-MEL-5 melanoma, 9.28 µM and 30.6 µM; with RPMI-8226 leukemia it was 5.73 µM.
On to `CSc1ccc(C2=NN(C(C)=O)C(c3cc(C)cs3)C2)cc1` (stereo not drawn), for which the GI50 with NCI-H23 lung was 29.9 µM; with SNB-75 CNS it was 22.1 µM; with NCI-H460 lung, 27.3 µM; in the experiment with SK-OV-3 ovarian, 38.2 µM; with SK-MEL-2 melanoma, 39 µM; with HCT-15 colon, 24.6 µM. Moreover, the GI50 with KM12 colon was 24 µM; with SNB-19 CNS, 37 µM; in the experiment with SK-MEL-5 melanoma, 15.1 µM; in the experiment on RPMI-8226 leukemia, 15.3 µM. The TGI in the experiment with NCI-H23 lung, in the experiment with SNB-75 CNS, in the experiment with NCI-H460 lung, in the experiment on SK-OV-3 ovarian, with SK-MEL-2 melanoma and with HCT-15 colon was over 100 µM in each case. Besides, the TGI was over 100 µM in the experiment on KM12 colon, over 100 µM with SNB-19 CNS, 29.5 µM in the experiment on SK-MEL-5 melanoma and over 100 µM in the experiment with RPMI-8226 leukemia.
For the molecule `CCCCC/C(C=C(C#N)C#N)=C/c1ccccc1`, the GI50 in the experiment with NCI-H23 lung is 3.62 µM; in the experiment on SNB-75 CNS, 12.4 µM; with NCI-H460 lung, 3.22 µM; in the experiment with SK-OV-3 ovarian, 7.87 µM; with SK-MEL-2 melanoma, 17.4 µM; in the experiment on HCT-15 colon, 5.13 µM. In addition, the GI50 with KM12 colon is 3.37 µM; with SNB-19 CNS, 6.53 µM; in the experiment with SK-MEL-5 melanoma it was 2.68 µM; in the experiment with RPMI-8226 leukemia, 1.92 µM. Besides, the TGI in the experiment on NCI-H23 lung turned out to be 13.6 µM; with SNB-75 CNS, 27.7 µM; with NCI-H460 lung, 12.2 µM; in the experiment on SK-OV-3 ovarian it was 23.5 µM; with SK-MEL-2 melanoma, 41.3 µM; in the experiment with HCT-15 colon, 27.5 µM. For the same molecule, the TGI came out at 13.2 µM in the experiment on KM12 colon, 21.8 µM with SNB-19 CNS, 14.2 µM with SK-MEL-5 melanoma and 5.78 µM in the experiment with RPMI-8226 leukemia.
Take `COc1ccc2c(c1)c(-c1nc(-c3cn(C)c4ncccc34)cs1)cn2CCCN1CCCCC1`: the GI50 in the experiment on NCI-H23 lung is 1.81 µM; with SNB-75 CNS it was 1.34 µM; with NCI-H460 lung it was 1.95 µM; with SK-OV-3 ovarian, 1.83 µM; in the experiment with SK-MEL-2 melanoma, 2.07 µM; in the experiment on HCT-15 colon, 1.53 µM. The GI50 with KM12 colon was 1.78 µM; in the experiment with SNB-19 CNS, 1.9 µM; in the experiment on SK-MEL-5 melanoma, 1.79 µM; in the experiment with RPMI-8226 leukemia, 2.19 µM. In addition, the TGI with NCI-H23 lung was 3.49 µM; in the experiment with SNB-75 CNS, 2.72 µM; with NCI-H460 lung, 3.7 µM; in the experiment on SK-OV-3 ovarian, 3.53 µM; in the experiment on SK-MEL-2 melanoma it was 4.46 µM; with HCT-15 colon, 2.96 µM. The TGI is 3.45 µM in the experiment on KM12 colon, 3.52 µM in the experiment on SNB-19 CNS, 3.25 µM in the experiment with SK-MEL-5 melanoma and 4.64 µM with RPMI-8226 leukemia.
For `COC(=O)CCCCN=Cc1c(O)c(O)c(C(C)C)c2cc(C)c(-c3c(C)cc4c(C(C)C)c(O)c(O)c(C=NCCCCC(=O)OC)c4c3O)c(O)c12`, the GI50 in the experiment with NCI-H23 lung is 1.07 µM; with SNB-75 CNS, 2.6 µM; with NCI-H460 lung, 1.04 µM; with SK-OV-3 ovarian, 0.976 µM; in the experiment on SK-MEL-2 melanoma, 1.38 µM; in the experiment with HCT-15 colon, 1.06 µM. Also, the GI50 was 0.799 µM in the experiment on KM12 colon, 0.713 µM with SNB-19 CNS, 1.83 µM with SK-MEL-5 melanoma and 0.616 µM in the experiment on RPMI-8226 leukemia. For the same molecule, the TGI was 27 µM with NCI-H23 lung; over 32.5 µM with SNB-75 CNS; 9.48 µM in the experiment on NCI-H460 lung; 3.08 µM in the experiment with SK-OV-3 ovarian; over 32.5 µM with SK-MEL-2 melanoma; over 32.5 µM with HCT-15 colon. Also, the TGI in the experiment on KM12 colon was over 32.5 µM; in the experiment on SNB-19 CNS, over 32.5 µM; in the experiment on SK-MEL-5 melanoma, 8.75 µM; with RPMI-8226 leukemia, 20.3 µM.
`CC1OC(n2cc(F)c(=O)[nH]c2=O)CCC1O` (stereo not drawn): the TGI in the experiment with NCI-H23 lung, in the experiment with SNB-75 CNS, in the experiment with NCI-H460 lung, in the experiment with SK-OV-3 ovarian, in the experiment with SK-MEL-2 melanoma and with HCT-15 colon was over 100 µM in each case. For the same molecule, the TGI with KM12 colon is over 100 µM; in the experiment on SNB-19 CNS, over 100 µM; in the experiment on SK-MEL-5 melanoma, over 56.2 µM; with RPMI-8226 leukemia, over 100 µM.
For the molecule `N#C/C(=C1C=C/C(=N/O)C(Br)=C/1)c1ccccc1`, the GI50 in the experiment with NCI-H23 lung is 5.26 µM; with SNB-75 CNS, 3.42 µM; with NCI-H460 lung it was 2.89 µM; with SK-OV-3 ovarian it was 4.43 µM; in the experiment on SK-MEL-2 melanoma, 3.64 µM; with HCT-15 colon, 2.41 µM. The GI50 was 0.347 µM with KM12 colon, 8.7 µM in the experiment with SNB-19 CNS, 2.75 µM with SK-MEL-5 melanoma and 0.36 µM in the experiment with RPMI-8226 leukemia. Further, the TGI in the experiment on NCI-H23 lung is 96.8 µM; in the experiment on SNB-75 CNS it was 22.6 µM; in the experiment with NCI-H460 lung, 8.8 µM; in the experiment on SK-OV-3 ovarian, 71.6 µM; in the experiment on SK-MEL-2 melanoma, 13.9 µM; with HCT-15 colon, over 100 µM. Further, the TGI with KM12 colon is 1.42 µM; in the experiment on SNB-19 CNS, over 100 µM; with SK-MEL-5 melanoma, 10.4 µM; in the experiment with RPMI-8226 leukemia, 11.5 µM.
On to `O=C1/C(=C/c2ccc(Br)cc2)C=C(c2ccccc2)N1CCc1ccccc1`, for which the GI50 in the experiment on NCI-H23 lung was 1.69 µM; in the experiment on SNB-75 CNS it was 0.66 µM; in the experiment with NCI-H460 lung it was 0.906 µM; with SK-OV-3 ovarian, 1.55 µM; in the experiment on SK-MEL-2 melanoma it was 4.47 µM; in the experiment on HCT-15 colon, 11.7 µM. Moreover, the GI50 is 43.6 µM with KM12 colon, 1.21 µM in the experiment with SNB-19 CNS, 3.89 µM with SK-MEL-5 melanoma and 9.44 µM in the experiment with RPMI-8226 leukemia. For the same molecule, the TGI was 14.6 µM in the experiment with NCI-H23 lung; 3.83 µM with SNB-75 CNS; 10.2 µM with NCI-H460 lung; 5 µM in the experiment on SK-OV-3 ovarian; 27.2 µM in the experiment with SK-MEL-2 melanoma; over 100 µM in the experiment on HCT-15 colon. For the same molecule, the TGI with KM12 colon is over 100 µM; with SNB-19 CNS it was 5.03 µM; in the experiment on SK-MEL-5 melanoma it was 20.8 µM; with RPMI-8226 leukemia it was 86.4 µM.
As for `CC(=O)Nc1ccccc1Sc1ccccc1`, the TGI in the experiment with NCI-H23 lung, with SNB-75 CNS, in the experiment on NCI-H460 lung, in the experiment on SK-OV-3 ovarian, with SK-MEL-2 melanoma and with HCT-15 colon was over 100 µM in each case. For the same molecule, the TGI in the experiment on KM12 colon, in the experiment on SNB-19 CNS, with SK-MEL-5 melanoma and in the experiment with RPMI-8226 leukemia was over 100 µM each time.
For the molecule `O=C(NCCOCCOCCNc1cccc2c1C(=O)N(C1CCCNC1=O)C2=O)c1cc2c(o1)C(=O)c1ccccc1C2=O` (stereo not drawn), the GI50 is 0.313 µM with NCI-H23 lung; 2.65 µM in the experiment with SNB-75 CNS; 1.85 µM in the experiment on NCI-H460 lung; 2.87 µM in the experiment on SK-OV-3 ovarian; 2.11 µM with SK-MEL-2 melanoma; 2.06 µM in the experiment with HCT-15 colon. The GI50 with KM12 colon was 2.91 µM; in the experiment with SNB-19 CNS, 2.42 µM; with SK-MEL-5 melanoma, 0.707 µM; in the experiment with RPMI-8226 leukemia, 3.29 µM. In addition, the TGI stood at 1.79 µM in the experiment with NCI-H23 lung; 4.61 µM in the experiment with SNB-75 CNS; 3.59 µM in the experiment with NCI-H460 lung; 7.93 µM in the experiment on SK-OV-3 ovarian; 6.1 µM with SK-MEL-2 melanoma; 5.5 µM with HCT-15 colon. Further, the TGI in the experiment on KM12 colon was found to be 10 µM; in the experiment with SNB-19 CNS it was 9.84 µM; in the experiment with SK-MEL-5 melanoma, 1.99 µM; in the experiment on RPMI-8226 leukemia it was 14.1 µM.
On to `CC1(C)CC(/C=C2/OC(=O)c3ccccc32)=C(C#N)C(=O)O1`, for which the TGI in the experiment with NCI-H23 lung, in the experiment with SNB-75 CNS, with NCI-H460 lung, in the experiment on SK-OV-3 ovarian, in the experiment with SK-MEL-2 melanoma and with HCT-15 colon was over 100 µM each time. Also, the TGI in the experiment with KM12 colon, in the experiment on SNB-19 CNS, in the experiment on SK-MEL-5 melanoma and with RPMI-8226 leukemia was over 100 µM in each case.
Turning to `O=C(CN1CCOCC1)Nc1ccc(Cn2nnc3c2C(=O)c2nnn(Cc4ccc(NC(=O)CN5CCOCC5)cc4)c2C3=O)cc1`, the GI50 was 0.802 µM in the experiment on NCI-H23 lung; 1.66 µM in the experiment with SNB-75 CNS; 0.378 µM in the experiment on NCI-H460 lung; 2.68 µM in the experiment on SK-OV-3 ovarian; 0.438 µM in the experiment on SK-MEL-2 melanoma; 7.42 µM with HCT-15 colon. Further, the GI50 in the experiment on KM12 colon was 0.959 µM; in the experiment on SNB-19 CNS, 0.41 µM; in the experiment with SK-MEL-5 melanoma it was 0.249 µM; with RPMI-8226 leukemia, 0.365 µM. For the same molecule, the TGI is 3.61 µM in the experiment on NCI-H23 lung; 3.04 µM in the experiment with SNB-75 CNS; 5.48 µM with NCI-H460 lung; 8.28 µM with SK-OV-3 ovarian; 1.72 µM in the experiment on SK-MEL-2 melanoma; over 100 µM in the experiment on HCT-15 colon. The TGI with KM12 colon is 5.23 µM; in the experiment with SNB-19 CNS, 1.57 µM; in the experiment with SK-MEL-5 melanoma it was 0.877 µM; in the experiment on RPMI-8226 leukemia, 2.24 µM.
